Results on 23 molecules are retold here after PubChem BioAssay AID248 (DTP/NCI, 2004).

Inconclusive results and toxic doses are left out.

The assay deals with L1210 leukemia ip in BDF1 mice, survival T/C. The experiment in a line: NCI In Vivo Anticancer Drug Screen. Data for tumor model L1210 Leukemia (intraperitoneal) in B6D2F1 (BDF1) mice. The following applies: endpoint: mean survival time, higher = longer survival. In short, it runs like this: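 Ratio derived from survival: compound-dosed mice over vehicle-dosed mice, all bearing a transplantable tumor.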

Setting [1] is: dose: 100.0 mg/kg/injection, schedule: Q01DX001 (ip), vehicle: saline.
[2] abbreviates: dose: 200.0 mg/kg/injection, schedule: Q01DX001 (ip), vehicle: saline.
Where [3] appears, read: dose: 400.0 mg/kg/injection, schedule: Q01DX001 (ip), vehicle: saline.
Where [4] appears, read: dose: 100.0 mg/kg/injection, schedule: Q04DX003 (ip), vehicle: Klucel (hydroxypropylcellulose) (HPC).
[5] abbreviates: dose: 200.0 mg/kg/injection, schedule: Q01DX009 (ip), vehicle: Klucel (hydroxypropylcellulose) (HPC).
[6] abbreviates: dose: 200.0 mg/kg/injection, schedule: Q04DX003 (ip), vehicle: Klucel (hydroxypropylcellulose) (HPC).
Setting [7] is: dose: 400.0 mg/kg/injection, schedule: Q01DX009 (ip), vehicle: Klucel (hydroxypropylcellulose) (HPC).
Setting [8] is: dose: 400.0 mg/kg/injection, schedule: Q04DX003 (ip), vehicle: Klucel (hydroxypropylcellulose) (HPC).
Where [9] appears, read: dose: 100.0 mg/kg/injection, schedule: Q01DX009 (ip), vehicle: saline with Tween-80.
Setting [10] is: dose: 100.0 mg/kg/injection, schedule: Q04DX002 (ip), vehicle: saline with Tween-80.
The mark [11] stands for this setting: dose: 200.0 mg/kg/injection, schedule: Q01DX009 (ip), vehicle: saline with Tween-80.
Where [12] appears, read: dose: 100.0 mg/kg/injection, schedule: Q04DX003 (ip), vehicle: saline with Tween-80.
Where [13] appears, read: dose: 400.0 mg/kg/injection, schedule: Q04DX003 (ip), vehicle: saline with Tween-80.
Where [14] appears, read: dose: 100.0 mg/kg/injection, schedule: Q01DX009 (ip), vehicle: Klucel (hydroxypropylcellulose) (HPC).
[15] abbreviates: dose: 50.0 mg/kg/injection, schedule: Q01DX001 (ip), vehicle: saline.

As for `Cn1c(Cl)nc2c(Cl)nc(Cl)nc21`, the T/C was 102 % of control (dose: 6.25 mg/kg/injection, schedule: Q01DX009 (ip), vehicle: Klucel (hydroxypropylcellulose) (HPC)); 102 % of control (dose: 12.5 mg/kg/injection, schedule: Q01DX009 (ip), vehicle: Klucel (hydroxypropylcellulose) (HPC)); 92 % of control under setting [1]; 94 % of control under setting [2]; 94 % of control under setting [3].
For `O=C1OC(c2ccc([N+](=O)[O-])cc2)=N/C1=C\c1cccc([N+](=O)[O-])c1`, the T/C is 96 % of control (dose: 100.0 mg/kg/injection, schedule: Q01DX009 (ip), vehicle: other); 100 % of control (dose: 200.0 mg/kg/injection, schedule: Q01DX009 (ip), vehicle: other); 106 % of control (dose: 400.0 mg/kg/injection, schedule: Q01DX009 (ip), vehicle: other).
`O=C(Nc1ccccc1F)c1ccc(Cl)c(Cl)c1`: the T/C was 98 % of control under setting [4]; 92 % of control under setting [5]; 96 % of control under setting [6]; 86 % of control under setting [7]; 93 % of control under setting [8].
For the molecule `Cc1ccc2c3c1C(O)C(C(N)=O)C3CCS2` (centres undefined), the T/C under setting [2] was 89 % of control and the T/C under setting [3] is 106 % of control.
As to `CCCC(=O)Oc1ccc(/C=N/NC(N)=S)nc1`, the T/C is, setting by setting: under setting [9], 119 % of control; under setting [10], 113 % of control; under setting [11], 156 % of control; (dose: 400.0 mg/kg/injection, schedule: Q01DX009 (ip), vehicle: saline with Tween-80) 176 % of control; (dose: 600.0 mg/kg/injection, schedule: Q01DX009 (ip), vehicle: saline with Tween-80) 109 % of control.
In the case of `O=C1CC(C(Cl)(Cl)Cl)O1` (centres undefined), the T/C runs as follows: (dose: 100.0 mg/kg/injection, schedule: Q04DX002 (ip), vehicle: Klucel (hydroxypropylcellulose) (HPC)) 89 % of control; (dose: 200.0 mg/kg/injection, schedule: Q04DX002 (ip), vehicle: Klucel (hydroxypropylcellulose) (HPC)) 92 % of control; (dose: 400.0 mg/kg/injection, schedule: Q04DX002 (ip), vehicle: Klucel (hydroxypropylcellulose) (HPC)) 106 % of control.
As for `CCC(=O)CCC1CCCCC1`, the T/C under setting [1] was 94 % of control, the T/C under setting [2] is 100 % of control and the T/C under setting [3] is 91 % of control.
For `O=S(=O)(c1ccccc1)n1ccc2ccccc21`, the T/C was 93 % of control under setting [10]; 97 % of control (dose: 200.0 mg/kg/injection, schedule: Q04DX002 (ip), vehicle: saline with Tween-80); 97 % of control (dose: 400.0 mg/kg/injection, schedule: Q04DX002 (ip), vehicle: saline with Tween-80).
With `Cc1ccc(Cl)cc1N=Cc1ccccc1O`, the T/C is, setting by setting: under setting [12], 94 % of control; under setting [13], 98 % of control.
Consider `Nc1cnccc1NCCc1cccc(O)c1`, for which the T/C by setting is: (dose: 12.5 mg/kg/injection, schedule: Q01DX009 (ip), vehicle: saline with Tween-80) 97 % of control; (dose: 25.0 mg/kg/injection, schedule: Q01DX009 (ip), vehicle: saline with Tween-80) 103 % of control; (dose: 50.0 mg/kg/injection, schedule: Q01DX009 (ip), vehicle: saline with Tween-80) 89 % of control; under setting [11], 88 % of control.
As for `COC(=O)c1c(I)cccc1[N+](=O)[O-]`, the T/C reads like this: under setting [14], 92 % of control; under setting [4], 97 % of control; under setting [5], 91 % of control; under setting [6], 103 % of control; under setting [7], 96 % of control; under setting [8], 97 % of control.
On to `CCOC(=O)c1ccc(C(=O)O)[n+]([O-])c1`, for which the T/C under setting [14] is 100 % of control; the T/C under setting [4] is 92 % of control; the T/C under setting [5] was 95 % of control; the T/C under setting [6] is 100 % of control; the T/C under setting [8] was 96 % of control.
With `C1C2C1C1C3C2C2C4C5CC5C5C2C1C1C5C4C31` (centres undefined), the T/C is 106 % of control under setting [15], 112 % of control under setting [1], 122 % of control under setting [2] and 106 % of control under setting [3].
`CCCCCCCCNC(=O)C1OC(n2cnc3c(N)ncnc32)C2OC(C)(C)OC12` (centres undefined): the T/C is 94 % of control (dose: 100.0 mg/kg/injection, schedule: Q01DX005 (ip), vehicle: saline with Tween-80) and 102 % of control (dose: 200.0 mg/kg/injection, schedule: Q01DX005 (ip), vehicle: saline with Tween-80).
Turning to `Cc1ccc(S(=O)(=O)NC(CSCc2ccccc2)C(=O)O)cc1` (centres undefined), the T/C was 92 % of control under setting [9] and 101 % of control under setting [11].
Regarding `CCCCNC(=O)C1C2C=CC(C2)C1C(=O)NCCCC` (centres undefined), the T/C under setting [12] is 96 % of control; the T/C (dose: 200.0 mg/kg/injection, schedule: Q04DX003 (ip), vehicle: saline with Tween-80) is 96 % of control; the T/C under setting [13] is 91 % of control.
As for `Cc1cc(C(=O)Nc2ccc(C3=NCCN3)cc2)ccc1C(=O)Nc1ccc(C2=NCCN2)cc1`, the T/C is 98 % of control (dose: 3.75 mg/kg/injection, schedule: Q01DX Z (ip), vehicle: saline); 102 % of control (dose: 7.5 mg/kg/injection, schedule: Q01DX Z (ip), vehicle: saline); 119 % of control (dose: 15.0 mg/kg/injection, schedule: Q01DX Z (ip), vehicle: saline); 196 % of control (dose: 60.0 mg/kg/injection, schedule: Q01DX Z (ip), vehicle: saline); 157 % of control (dose: 120.0 mg/kg/injection, schedule: Q01DX Z (ip), vehicle: saline); 175 % of control (dose: 240.0 mg/kg/injection, schedule: Q01DX Z (ip), vehicle: saline).
Turning to `O=C(NCCc1nc(C(=O)O)cs1)c1ccccc1`, the T/C (dose: 100.0 mg/kg/injection, schedule: Q01DX001 (ip), vehicle: other) was 98 % of control; the T/C (dose: 100.0 mg/kg/injection, schedule: Q01DX009 (ip), vehicle: gum acacia) is 99 % of control; the T/C (dose: 100.0 mg/kg/injection, schedule: Q04DX003 (ip), vehicle: gum acacia) was 103 % of control; the T/C (dose: 200.0 mg/kg/injection, schedule: Q01DX001 (ip), vehicle: other) is 101 % of control; the T/C (dose: 200.0 mg/kg/injection, schedule: Q04DX003 (ip), vehicle: gum acacia) is 98 % of control; the T/C (dose: 400.0 mg/kg/injection, schedule: Q01DX001 (ip), vehicle: other) is 102 % of control. The T/C (dose: 400.0 mg/kg/injection, schedule: Q04DX003 (ip), vehicle: gum acacia) was 97 % of control.
For the molecule `O=C(C(=Nc1ccccc1)C(=Nc1ccccc1)C(=O)c1ccccc1)c1ccccc1`, the T/C (dose: 100.0 mg/kg/injection, schedule: Q01DX001 (ip), vehicle: Klucel (hydroxypropylcellulose) (HPC)) is 97 % of control; the T/C (dose: 200.0 mg/kg/injection, schedule: Q01DX001 (ip), vehicle: Klucel (hydroxypropylcellulose) (HPC)) was 98 % of control; the T/C (dose: 400.0 mg/kg/injection, schedule: Q01DX001 (ip), vehicle: Klucel (hydroxypropylcellulose) (HPC)) is 95 % of control.
As to `CSc1ncc2c(Cl)nn(C)c2n1`, the T/C reads like this: (dose: 37.5 mg/kg/injection, schedule: Q01DX001 (ip), vehicle: Klucel (hydroxypropylcellulose) (HPC)) 94 % of control; (dose: 75.0 mg/kg/injection, schedule: Q01DX001 (ip), vehicle: Klucel (hydroxypropylcellulose) (HPC)) 92 % of control; (dose: 150.0 mg/kg/injection, schedule: Q01DX001 (ip), vehicle: Klucel (hydroxypropylcellulose) (HPC)) 90 % of control.
`CCCCCCC1CCC(CCCCCCCC(=O)N2CCN(C)CC2)C(C/C=C/CCCCCCCC(=O)N2CCN(C)CC2)C1CCCCC` (centres undefined): the T/C by setting is: (dose: 75.0 mg/kg/injection, schedule: Q01DX001 (ip), vehicle: saline) 94 % of control; (dose: 150.0 mg/kg/injection, schedule: Q01DX001 (ip), vehicle: saline) 103 % of control; (dose: 300.0 mg/kg/injection, schedule: Q01DX001 (ip), vehicle: saline) 95 % of control.
As to `C[n+]1ccccc1/C=C/c1ccnc2c(O)cccc12`, the T/C by setting is: (dose: 75.0 mg/kg/injection, schedule: Q01DX001 (ip), vehicle: carboxymethylcellulose (CMC)) 107 % of control; (dose: 150.0 mg/kg/injection, schedule: Q01DX001 (ip), vehicle: carboxymethylcellulose (CMC)) 102 % of control.
With `O=C1c2ccccc2C(=O)C1(Br)Br`, the T/C under setting [15] was 106 % of control, the T/C under setting [1] was 97 % of control and the T/C under setting [2] is 101 % of control.
